Key:
[1] = target: c-Kit gain-of-function mutant V559D (exon 11) (Homo sapiens, UniProt P10721, V559D); conditions: in vitro; cited from earlier work
advanced GIST = conditions: cited from earlier work
GIST = conditions: 345 patients, 400 mg/day, cited from earlier work

SMILES | melting point | further results
Cc1ccc(F)c(C(=O)Nc2ccc(C)c(Nc3nc(-c4cccnc4)cs3)c2)c1 [Compound 048, 2-Fluoro-5-methyl-N-[4-methyl-3-(4-pyridin-3-yl-thiazol-2-ylamino)-phenyl]-benzamide] | 103 to 106 °C | 
Cc1ccc(NC(=O)Nc2ccccc2F)cc1Nc1nc(-c2cccnc2)cs1 [Compound 023, 1-(2-Fluoro-phenyl)-3-[4-methyl-3-(4-pyridin-3-yl-thiazol-2-ylamino)-phenyl]-urea] | 203 to 206 °C | 
Cc1ccc(NC(=O)Nc2ccc(C)c(Nc3nc(-c4cccnc4)cs3)c2)cc1 [Compound 026, 1-[4-Methyl-3-(4-pyridin-3-yl-thiazol-2-ylamino)-phenyl]-3-p-tolyl-urea] | 238 to 240 °C | 
CS(=O)(=O)O.CS(=O)(=O)O.Cc1ccc(NC(=O)c2ccc(CN3CCN(C)CC3)cc2)cc1Nc1nc(-c2cccnc2)cs1 [masitinib mesilate, 4-(4-methylpiperazin-1-ylmethyl)-N-[4-methyl-3-(4-pyridin-3ylthiazol-2-ylamino)phenyl]benzamide-mesylate methane sulfonic acid salt] |  | inhibition of c-Kit mutant V559D (exon 11) [1]: potently inhibits
Cc1ccc(NC(=O)Nc2cccc(F)c2)cc1Nc1nc(-c2cccnc2)cs1 [Compound 025, 1-(3-Fluoro-phenyl)-3-[4-methyl-3-(4-pyridin-3-yl-thiazol-2-ylamino)-phenyl]-urea] | 210 to 215 °C | 
Cc1ccc(NC(=O)c2ccc(NS(=O)(=O)c3cccs3)cc2)cc1Nc1nc(-c2cccnc2)cs1 [Compound 044, N-[4-Methyl-3-(4-pyridin-3-yl-thiazol-2-ylamino)-phenyl]-4-(thiophene-2-sulfonylamino)-benzamide] | 230 to 233 °C | 
Cc1ccc(NC(=O)c2cccc(F)c2)cc1Nc1nc(-c2cccnc2)cs1 [Compound 045, 3-Fluoro-N-[4-methyl-3-(4-pyridin-3-yl-thiazol-2-ylamino)-phenyl]-benzamide] | 184 to 186 °C | 
Cc1ccc(NC(=O)c2ccc(-c3ccncc3)cc2)cc1Nc1nc(-c2cccnc2)cs1 [Compound 046, N-[4-Methyl-3-(4-pyridin-3-yl-thiazol-2-ylamino)-phenyl]-4-pyridin-4-yl-benzamide] | 254 to 256 °C | 
Cc1ccc(NC(=O)c2ccc(N(C)C)cc2)cc1Nc1nc(-c2cccnc2)cs1 [Compound 047, 4-Dimethylamino-N-[4-methyl-3-(4-pyridin-3-yl-thiazol-2-ylamino)-phenyl]-benzamide] | 147 to 150 °C | 
Cc1ccc(NC(=O)c2ccc(CN3CCN(C)CC3)cc2)cc1Nc1nccc(-c2cccnc2)n1 [imatinib] |  | 2-year survival rate of patients with advanced GIST (advanced GIST; after introduction of imatinib (pre-imatinib 25%)): about 70%; early resistance (progression within the first 6 months, no response), patients (advanced GIST; in vivo): 10-15%; median PFS (GIST; 95% CI [16-21]): 18 months; 2-year PFS rate (GIST; 95% CI [36-47]): 46%; Median overall survival (OS) (GIST; 95% CI [47-62]): 55 months; 2-year survival (GIST; 95% CI [67-77]): 72%; 3-year survival (GIST): ~61%

The next lines start with results.

melting point | SMILES | further results
116 to 120 °C | Cc1ccc(NC(=O)CCCN2CCOCC2)cc1Nc1nc(-c2cccnc2)cs1 [Compound 096, N-[4-Methyl-3-(4-pyridin-3-yl-thiazol-2-ylamino)-phenyl]-4-morpholin-4-yl-butyramide] | 
145 to 150 °C | Cc1ccc(NC(=O)c2ccc(C(C)(C)C)cc2)cc1Nc1nc(-c2cccnc2)cs1 [Compound 049, 4-tert-Butyl-N-[4-methyl-3-(4-pyridin-3-yl-thiazol-2-ylamino)-phenyl]-benzamide] | 
75 to 80 °C | Cc1ccc(NC(=O)c2cccc(OCCN3CCOCC3)c2)cc1Nc1nc(-c2cccnc2)cs1 [Compound 052, N-[4-Methyl-3-(4-pyridin-3-yl-thiazol-2-ylamino)-phenyl]-3-(2-morpholin-4-yl-ethoxy)-benzamide] | 
197 to 198 °C | Cc1ccc(NC(=O)c2cccc(N(C)C)c2)cc1Nc1nc(-c2cccnc2)cs1 [Compound 088, 3-Dimethylamino-N-[4-methyl-3-(4-pyridin-3-yl-thiazol-2-ylamino)-phenyl]-benzamide] | 
76 to 79 °C | COc1cccc(C(=O)Nc2ccc(C)c(Nc3nc(-c4cccnc4)cs3)c2)c1 [Compound 059] | 
247 to 248 °C | Cc1ccc(NC(=O)c2cccc(N3CCOCC3)c2)cc1Nc1nc(-c2cccnc2)cs1 [Compound 090, N-[4-Methyl-3-(4-pyridin-3-yl-thiazol-2-ylamino)-phenyl]-3-morpholin-4-yl-benzamide] | 

Source: US20110201620A1, “2-(3-AMINOARYL) AMINO-4-ARYL-THIAZOLES AND THEIR USE AS C-KIT INHIBITORS” (AB SCIENCE, priority 2002, published 2011)
